Consider nine compounds from patent US20240383875A1, “Benzimidazole Pyridine Derivatives” (Hoffmann-La Roche Inc., priority 2022, published 2024).

Type in all cases: biochemical
The target in one test is SIK3 (Homo sapiens, UniProt Q9Y2K2). The test is described as follows: Enzymatic activity assay SIK3, RapidFire mass spectrometry (phosphorylation of CHK-peptide). The following applies: RapidFire MS, inhibition of SIK3; read-out: SIK3 RF IC50. Put shortly:
(§1)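 Compounds (12-point, 3-fold, generally 30 μM to 170 pM) were pre-incubated 30 min at ambient temperature with SIK1 (5 nM), SIK2 (0.5 nM) or SIK3 (1.5 nM) in HEPES pH 7.0/magnesium acetate buffer. CHK-peptide (10 μM solution) and ATP (100 μM solution) were then added for 45 min before formic acid quench.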

Another test addresses SIK1 (Homo sapiens, UniProt P57059). The test can be described thus: Enzymatic activity assay SIK1, RapidFire mass spectrometry (phosphorylation of CHK-peptide). As to conditions: RapidFire MS, inhibition of SIK1; read-out: SIK1 RF IC50. In short, it runs like this:
as §1

The target in a further test is SIK2 (Homo sapiens, UniProt Q9H0K1). The test can be described thus: Enzymatic activity assay SIK2, RapidFire mass spectrometry (phosphorylation of CHK-peptide). As to conditions: RapidFire MS, inhibition of SIK2; read-out: SIK2 RF IC50. In short, it runs like this: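 SIK2 (0.5 nM) in pH 7.0 HEPES buffer with 10 mM Mg acetate phosphorylates CHK-peptide (10 μM solution) with 100 μM ATP solution, 45 min ambient, then formic acid quench.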
Chain of SIK2 (Q9H0K1 whole entry): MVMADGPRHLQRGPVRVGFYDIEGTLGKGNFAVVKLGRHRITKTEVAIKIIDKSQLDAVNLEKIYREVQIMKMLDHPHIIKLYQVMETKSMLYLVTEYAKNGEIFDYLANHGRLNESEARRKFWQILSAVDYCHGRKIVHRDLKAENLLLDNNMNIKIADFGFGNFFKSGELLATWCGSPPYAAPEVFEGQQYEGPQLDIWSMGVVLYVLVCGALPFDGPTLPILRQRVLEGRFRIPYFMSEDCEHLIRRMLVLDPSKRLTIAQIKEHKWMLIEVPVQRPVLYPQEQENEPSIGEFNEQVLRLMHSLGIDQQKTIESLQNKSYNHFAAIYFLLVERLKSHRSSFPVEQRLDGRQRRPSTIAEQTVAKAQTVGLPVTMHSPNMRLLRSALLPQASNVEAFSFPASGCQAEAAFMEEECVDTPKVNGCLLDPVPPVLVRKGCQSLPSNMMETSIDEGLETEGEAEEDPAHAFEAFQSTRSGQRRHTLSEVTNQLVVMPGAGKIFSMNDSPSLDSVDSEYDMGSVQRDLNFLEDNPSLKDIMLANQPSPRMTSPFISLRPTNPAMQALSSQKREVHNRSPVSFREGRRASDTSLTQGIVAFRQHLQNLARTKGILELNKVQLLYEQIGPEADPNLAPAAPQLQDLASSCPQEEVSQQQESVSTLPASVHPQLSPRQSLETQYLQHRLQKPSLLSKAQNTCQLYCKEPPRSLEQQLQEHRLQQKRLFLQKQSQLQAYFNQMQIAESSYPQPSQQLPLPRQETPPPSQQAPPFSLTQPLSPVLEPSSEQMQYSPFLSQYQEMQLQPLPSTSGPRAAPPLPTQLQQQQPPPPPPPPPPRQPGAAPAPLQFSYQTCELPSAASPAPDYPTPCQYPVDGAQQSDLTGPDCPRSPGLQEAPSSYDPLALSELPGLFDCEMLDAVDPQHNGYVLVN

Chain of SIK1 (P57059 whole entry): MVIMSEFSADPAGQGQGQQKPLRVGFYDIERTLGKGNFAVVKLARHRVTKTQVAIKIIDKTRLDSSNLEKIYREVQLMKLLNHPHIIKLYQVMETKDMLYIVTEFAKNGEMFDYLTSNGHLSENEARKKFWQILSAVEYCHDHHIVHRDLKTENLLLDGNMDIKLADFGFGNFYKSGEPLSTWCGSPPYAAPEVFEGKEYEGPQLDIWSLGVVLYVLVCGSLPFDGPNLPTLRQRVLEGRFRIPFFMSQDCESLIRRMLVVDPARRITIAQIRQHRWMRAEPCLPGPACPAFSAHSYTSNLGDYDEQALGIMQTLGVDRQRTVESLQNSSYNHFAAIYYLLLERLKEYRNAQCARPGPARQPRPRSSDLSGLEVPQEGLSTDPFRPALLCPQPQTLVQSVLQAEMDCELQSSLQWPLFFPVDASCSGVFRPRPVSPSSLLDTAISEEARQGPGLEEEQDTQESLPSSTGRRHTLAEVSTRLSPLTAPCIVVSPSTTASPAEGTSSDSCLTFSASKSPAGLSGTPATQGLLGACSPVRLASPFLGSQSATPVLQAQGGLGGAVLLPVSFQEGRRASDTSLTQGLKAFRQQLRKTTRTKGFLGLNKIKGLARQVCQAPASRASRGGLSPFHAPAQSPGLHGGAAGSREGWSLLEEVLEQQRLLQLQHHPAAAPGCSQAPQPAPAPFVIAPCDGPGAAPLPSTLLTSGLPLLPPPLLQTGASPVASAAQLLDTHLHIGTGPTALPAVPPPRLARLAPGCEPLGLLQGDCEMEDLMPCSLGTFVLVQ
Chain of SIK3 (Q9Y2K2 whole entry): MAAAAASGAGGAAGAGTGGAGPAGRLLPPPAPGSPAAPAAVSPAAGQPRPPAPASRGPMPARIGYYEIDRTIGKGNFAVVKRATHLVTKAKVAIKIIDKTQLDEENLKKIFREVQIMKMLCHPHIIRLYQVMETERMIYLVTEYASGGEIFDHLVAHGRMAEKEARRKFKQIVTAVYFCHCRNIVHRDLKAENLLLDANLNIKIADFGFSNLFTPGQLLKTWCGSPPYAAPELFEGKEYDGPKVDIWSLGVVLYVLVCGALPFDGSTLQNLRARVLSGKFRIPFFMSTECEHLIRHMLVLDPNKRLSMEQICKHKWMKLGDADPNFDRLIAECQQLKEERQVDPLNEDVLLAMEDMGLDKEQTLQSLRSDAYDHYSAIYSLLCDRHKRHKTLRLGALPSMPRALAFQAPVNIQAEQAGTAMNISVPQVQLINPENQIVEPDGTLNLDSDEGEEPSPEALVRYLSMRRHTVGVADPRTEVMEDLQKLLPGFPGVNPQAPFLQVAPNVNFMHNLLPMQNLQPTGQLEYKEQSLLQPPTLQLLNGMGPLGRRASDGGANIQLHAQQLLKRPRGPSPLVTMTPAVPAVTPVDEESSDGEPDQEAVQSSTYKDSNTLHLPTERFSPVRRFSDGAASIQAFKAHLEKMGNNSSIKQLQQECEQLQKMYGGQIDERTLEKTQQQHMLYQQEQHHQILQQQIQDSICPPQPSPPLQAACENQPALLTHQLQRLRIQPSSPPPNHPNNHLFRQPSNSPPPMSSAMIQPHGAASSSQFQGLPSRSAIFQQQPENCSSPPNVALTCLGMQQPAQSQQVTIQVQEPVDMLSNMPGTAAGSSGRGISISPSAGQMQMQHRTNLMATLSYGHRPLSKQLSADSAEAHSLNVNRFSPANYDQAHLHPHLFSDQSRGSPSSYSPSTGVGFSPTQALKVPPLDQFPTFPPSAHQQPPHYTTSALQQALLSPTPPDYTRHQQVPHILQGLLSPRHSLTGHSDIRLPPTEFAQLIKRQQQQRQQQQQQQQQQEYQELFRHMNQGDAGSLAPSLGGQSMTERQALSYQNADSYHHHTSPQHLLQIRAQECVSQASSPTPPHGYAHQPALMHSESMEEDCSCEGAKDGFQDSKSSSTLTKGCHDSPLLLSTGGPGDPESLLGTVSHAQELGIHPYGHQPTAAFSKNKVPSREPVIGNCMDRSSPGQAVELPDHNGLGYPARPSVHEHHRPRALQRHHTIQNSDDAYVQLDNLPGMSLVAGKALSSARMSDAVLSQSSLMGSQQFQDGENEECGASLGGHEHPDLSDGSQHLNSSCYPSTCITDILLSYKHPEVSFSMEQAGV

Usually IC50 stands for the midpoint of a concentration-inhibition curve. Consider `Cc1ccc(Nc2ccc3c(c2)ncn3-c2ccc([C@@H](C)O)c(-c3cn(CC(F)(F)F)nc3C)n2)nn1` [Example 251, (1R)-1-[6-[5-[(6-Methylpyridazin-3-yl)amino]benzimidazol-1-yl]-2-[3-methyl-1-(2,2,2-trifluoroethyl)pyrazol-4-yl]-3-pyridyl]ethanol], for which the half-inhibitory concentration (IC50) on SIK3 was determined as 0.0004 µM; at SIK1, 0.063 µM; on SIK2, 0.0003 µM.

As for `Cc1ccc(Nc2cc3c(cc2F)ncn3-c2ccc(C(C)O)c(-n3nc(C(F)F)cc3C)n2)c(F)c1F` (stereo not drawn) [Example 362, 1-[6-[6-(2,3-difluoro-4-methyl-anilino)-5-fluoro-benzimidazol-1-yl]-2-[3-(difluoromethyl)-5-methyl-pyrazol-1-yl]-3-pyridyl]ethanol], the 50% inhibitory concentration (IC50) at SIK3 was 0.0267 µM; at SIK1 it was 0.012 µM; at SIK2 it was 0.0087 µM.

Consider `Cc1nn(CC(F)(F)F)cc1-c1nc(-n2cnc3cc(Oc4ccc(CN5CCN(C)CC5)nn4)ccc32)ccc1C(C)O` (stereo not drawn) [Example 352, 1-[6-[5-[6-[(4-methylpiperazin-1-yl)methyl]pyridazin-3-yl]oxybenzimidazol-1-yl]-2-[3-methyl-1-(2,2,2-trifluoroethyl)pyrazol-4-yl]-3-pyridyl]ethanol], for which the figures for the 50% inhibitory concentration (IC50) on SIK3, on SIK1 and at SIK2 were 0.0241 µM, 2.34 µM and 0.0165 µM, respectively.

Consider `COc1c(O)cccc1-c1nc(-n2cnc3cc(Nc4ccc(C)nn4)ccc32)ccc1C(C)O` (stereo not drawn) [Example 203, 3-[3-(1-Hydroxyethyl)-6-[5-[(6-methylpyridazin-3-yl)amino]benzimidazol-1-yl]-2-pyridyl]-2-methoxy-phenol; formic acid], for which the IC50 is 0.0554 µM on SIK3, 14.4 µM on SIK1 and 0.52 µM at SIK2.

As for `Cc1ccc(Nc2ccc3ncn(-c4ccc(C(C)O)c(-n5nc(C#N)c6c5CCN(C)C6)n4)c3c2)nn1` (stereo not drawn) [Example 291, 1-[3-(1-hydroxyethyl)-6-[6-[(6-methylpyridazin-3-yl)amino]benzimidazol-1-yl]-2-pyridyl]-5-methyl-6,7-dihydro-4~{H}-pyrazolo[4,3-c]pyridine-3-carbonitrile], the values for the IC50 at SIK3, at SIK1 and on SIK2 were 0.0119 µM, 0.001 µM and 0.0012 µM, respectively.

With `Cc1cc(C#N)nn1-c1nc(-n2cnc3cc(Nc4ccn(C)c(=O)n4)ccc32)ccc1C(C)O` (stereo not drawn) [Example 146, 1-[3-(1-Hydroxyethyl)-6-[5-[(2-keto-1-methyl-pyrimidin-4-yl)amino]benzimidazol-1-yl]-2-pyridyl]-5-methyl-pyrazole-3-carbonitrile], the IC50 on SIK3 is 0.0078 µM; on SIK1, 0.227 µM; on SIK2, 0.0346 µM.

As for `Cc1cc(C#N)nn1-c1nc(-n2cnc3cc(Nc4ccnnc4)ccc32)ccc1C(C)O` (stereo not drawn) [Example 87, 1-[3-(1-Hydroxyethyl)-6-[5-(pyridazin-4-ylamino)benzimidazol-1-yl]-2-pyridyl]-5-methyl-pyrazole-3-carbonitrile], the IC50 is 0.0029 µM at SIK3, 0.022 µM on SIK1 and 0.0096 µM on SIK2.

On to `Cc1nnc(Nc2ccc3c(c2)ncn3-c2ccc(C(C)O)c(-n3nc(C#N)cc3C)n2)o1` (stereo not drawn) [Example 103, 1-[3-(1-Hydroxyethyl)-6-[5-[(5-methyl-1,3,4-oxadiazol-2-yl)amino]benzimidazol-1-yl]-2-pyridyl]-5-methyl-pyrazole-3-carbonitrile], for which the IC50 at SIK3 turned out to be 0.0175 µM; on SIK1, 0.035 µM; at SIK2 it was 0.0288 µM.

Consider `Cc1ccc(Nc2ccc3ncn(-c4ccc(C(C)O)c(N5CC[C@@H](C#N)C5)n4)c3c2)nn1` (stereo partly drawn) [Example 106, (3R)-1-[3-(1-Hydroxyethyl)-6-[6-[(6-methylpyridazin-3-yl)amino]benzimidazol-1-yl]-2-pyridyl]pyrrolidine-3-carbonitrile], for which the 50% inhibitory concentration (IC50) on SIK3 is 0.0025 µM; on SIK1, 0.869 µM; at SIK2, 0.0211 µM.
